One series has as its system Cyperus iria. The series is described as follows: Preemergence weed control under flooded paddy conditions, CYPIR (Rice Flatsedge). On herbicidal effect rating, CYPIR: meaning of each grade not given here. It is filed as in vivo. The conditions noted are these: flooded paddy, rated three to four weeks after treatment.
For series [1], the system named is Cyperus serotinus, Rottb. The experiment in a line: Preemergence weed control under flooded paddy conditions, CYPSE (Flatsedge). On herbicidal effect rating, CYPSE: meaning of each grade not given here. It is filed as in vivo. The conditions noted are these: rated three to four weeks after treatment.
In series [2] the test system is Echinochloa oryzoides (Ard.) Fritsch. The experiment in a line: Preemergence weed control under flooded paddy conditions, ECHORC (Watergrass (Calif.)). On herbicidal effect rating, ECHORC: meaning of each grade not given here. It is filed as in vivo. Conditions: flooded paddy, rated three to four weeks after treatment.
The next series deals with Sagittaria pygmaea, L. The experiment in a line: Preemergence weed control under flooded paddy conditions, SAGPY (Arrowhead (Pygmaea)). On herbicidal effect rating, SAGPY: meaning of each grade not given here. It is filed as in vivo. The conditions noted are these: flooded paddy, rated three to four weeks after treatment.
Series [3] deals with Monochoria vaginalis, Presl. The experiment in a line: Preemergence weed control under flooded paddy conditions, MOOVA (Monochoria). On herbicidal effect rating, MOOVA: meaning of each grade not given here. The conditions noted are these: flooded paddy, rated three to four weeks after treatment. The series is classed as in vivo.
Series [4] has as its system Oryza sativa, (L.) Tebonnet. The experiment in a line: Rice tolerance to post-transplant applications under flooded paddy conditions (Example 187), ORYSAT (Rice, Tebonnet). On herbicidal effect rating ORYSAT: meaning of each grade not given here. Conditions: rated three to four weeks after treatment.
Where [5] appears, read: Rate 0.0320 kg/ha, preemergence.
Where [6] appears, read: Rate 0.0620 kg/ha, preemergence.
Where [7] appears, read: Rate 0.1250 kg/ha, preemergence.
Where [8] appears, read: Rate 0.2500 kg/ha, preemergence.
[9] abbreviates: Rate 0.0320 kg/ha, preemergence weeds.
[10] abbreviates: Rate 0.0620 kg/ha, preemergence weeds.
Where [11] appears, read: Rate 0.1250 kg/ha, preemergence weeds.
Setting [12] is: Rate 0.2500 kg/ha, preemergence weeds.
The mark [13] stands for this setting: 0.0313 kg/ha, preemergence weeds.
[14] abbreviates: 0.0625 kg/ha, preemergence weeds.
The mark [15] stands for this setting: 0.1250 kg/ha, preemergence weeds.
Where [16] appears, read: 0.2500 kg/ha, preemergence weeds.

As for `COC(=O)C(C)Oc1ccc(I)cc1-c1nsc2ccc(-n3c(=O)cc(C(F)(F)F)n(C)c3=O)cc12` (stereo not shown) [Example 460, Propionic acid, 2-{2-{5-[3,6-dihydro-3-methyl-2,6-dioxo-4-(trifluoromethyl)-1(2H)-pyrimidinyl]-1,2-benzisothiazol-3-yl}-4-iodophenoxy}-, methyl ester], the CYPIR herbicidal rating in the series with Cyperus iria (0.0320 kg/ha, preemergence) was found to be 0.0; in the series with Cyperus iria (0.0620 kg/ha, preemergence), 2.0; with Cyperus iria (0.1250 kg/ha, preemergence), 3.0; in the series on Cyperus iria (0.2500 kg/ha, preemergence) it was 3.0. The CYPSE herbicidal rating is listed as 0.0 in series [1] (0.1250 kg/ha, preemergence) and 0.0 in series [1] (0.2500 kg/ha, preemergence). Also, the ECHORC herbicidal rating turned out to be 6.0 in series [2] (0.0320 kg/ha, preemergence); 7.0 in series [2] (0.0620 kg/ha, preemergence); 9.0 in series [2] (0.1250 kg/ha, preemergence); 9.0 in series [2] (0.2500 kg/ha, preemergence). In addition, the SAGPY herbicidal rating is 0.0 in the series with Sagittaria pygmaea, L. (0.0320 kg/ha, preemergence); 0.0 with Sagittaria pygmaea, L. (0.0620 kg/ha, preemergence); 3.0 in the series on Sagittaria pygmaea, L. (0.1250 kg/ha, preemergence); 3.0 with Sagittaria pygmaea, L. (0.2500 kg/ha, preemergence). In addition, the MOOVA herbicidal rating was determined as 3.0 in series [3] (0.0320 kg/ha, preemergence); 4.0 in series [3] (0.0620 kg/ha, preemergence); 4.0 in series [3] (0.1250 kg/ha, preemergence); 4.0 in series [3] (0.2500 kg/ha, preemergence). For the same compound, the “ORYSAT herbicidal rating (rice tolerance)” value in series [4] (0.0320 kg/ha) was 4.0; in series [4] (0.0620 kg/ha) it was 4.0; in series [4] (0.1250 kg/ha), 4.0; in series [4] (0.2500 kg/ha) it was 5.0.
Regarding `COC(C)c1nsc2ccc(-n3c(=O)cc(C(F)(F)F)n(C)c3=O)cc12` (stereo not shown) [Example 350, 2,4(1H,3H)-Pyrimidinedione, 3-[3-(1-methoxyethyl)-1,2-benzisothiazol-5-yl]-1-methyl-6-(trifluoromethyl)-], the “herbicidal effect rating, CYPIR” value with Cyperus iria (setting [5]) worked out at 4.0; in the series on Cyperus iria (setting [6]), 5.0; with Cyperus iria (setting [7]), 9.0; in the series with Cyperus iria (setting [8]), 9.0. In addition, the “herbicidal effect rating, CYPSE” value came out at 7.5 in series [1] (setting [5]), 8.5 in series [1] (setting [6]), 8.5 in series [1] (setting [7]) and 9.0 in series [1] (setting [8]). For the same compound, the “herbicidal effect rating, ECHORC” value in series [2] (setting [5]) is given as 6.0; in series [2] (setting [6]), 7.5; in series [2] (setting [7]), 8.0; in series [2] (setting [8]) it was 9.0. Further, the “herbicidal effect rating, SAGPY” value is listed as 5.5 in the series with Sagittaria pygmaea, L. (setting [5]); 7.0 with Sagittaria pygmaea, L. (setting [6]); 7.5 in the series with Sagittaria pygmaea, L. (setting [7]); 9.0 with Sagittaria pygmaea, L. (setting [8]). Also, the “herbicidal effect rating, MOOVA” value in series [3] (setting [5]), in series [3] (setting [6]), in series [3] (setting [7]) and in series [3] (setting [8]) was 9.0 in each case. The “herbicidal effect rating ORYSAT” value in series [4] (Rate 0.0320 kg/ha), in series [4] (Rate 0.0620 kg/ha), in series [4] (Rate 0.1250 kg/ha) and in series [4] (Rate 0.2500 kg/ha) was 9.0 in each case.
For the compound `CC(C)NC(=O)c1nsc2ccc(-n3c(=O)cc(C(F)(F)F)n(C)c3=O)cc12` [Example 330, 1,2-Benzisothiazole-3-carboxamide, 5-[3,6-dihydro-3-methyl-2,6-dioxo-4-(trifluoromethyl)-1(2H)-pyrimidinyl]-N-isopropyl-], the “herbicidal effect rating, CYPIR” value in the series with Cyperus iria (setting [9]) turned out to be 0.0; with Cyperus iria (setting [10]), 0.0; with Cyperus iria (setting [11]), 6.0; with Cyperus iria (setting [12]) it was 6.0. In addition, the “herbicidal effect rating, CYPSE” value in series [1] (setting [9]), in series [1] (setting [10]), in series [1] (setting [11]) and in series [1] (setting [12]) was 5.0 each time. Further, the “herbicidal effect rating, ECHORC” value in series [2] (setting [9]) is listed as 7.0; in series [2] (setting [10]) it was 7.0; in series [2] (setting [11]) it was 9.0; in series [2] (setting [12]) it was 9.0. In addition, the “herbicidal effect rating, SAGPY” value with Sagittaria pygmaea, L. (setting [9]) was 0.0; in the series on Sagittaria pygmaea, L. (setting [10]) it was 0.0; with Sagittaria pygmaea, L. (setting [11]) it was 0.0; with Sagittaria pygmaea, L. (setting [12]) it was 0.0. For the same compound, the “herbicidal effect rating, MOOVA” value in series [3] (setting [9]), in series [3] (setting [10]), in series [3] (setting [11]) and in series [3] (setting [12]) was 9.0 throughout. Also, the “herbicidal effect rating ORYSAT” value in series [4] (Rate 0.0320 kg/ha), in series [4] (Rate 0.0620 kg/ha), in series [4] (Rate 0.1250 kg/ha) and in series [4] (Rate 0.2500 kg/ha) was 7.0 each time.
With `CCc1nsc2ccc(-n3c(=O)cc(C(F)(F)F)n(C)c3=O)cc12` [Example 119, 3-(3-Ethyl-1,2-benzisothiazol-5-yl)-1-methyl-6-(trifluoromethyl)-2,4(1H,3H)-pyrimidinedione], the “herbicidal effect rating, CYPIR” value in the series on Cyperus iria (setting [13]), in the series with Cyperus iria (setting [14]), in the series with Cyperus iria (setting [15]) and in the series on Cyperus iria (setting [16]) was 9.0 in each case. In addition, the “herbicidal effect rating, CYPSE” value in series [1] (setting [13]) is reported as 2.0; in series [1] (setting [14]), 4.0; in series [1] (setting [15]) it was 8.0; in series [1] (setting [16]) it was 9.0. Further, the “herbicidal effect rating, ECHORC” value in series [2] (setting [13]) is 4.0; in series [2] (setting [14]), 9.0; in series [2] (setting [15]), 9.0; in series [2] (setting [16]), 9.0. Further, the “herbicidal effect rating, SAGPY” value in the series with Sagittaria pygmaea, L. (setting [13]) was determined as 6.0; in the series with Sagittaria pygmaea, L. (setting [14]) it was 8.0; in the series on Sagittaria pygmaea, L. (setting [15]), 8.0; in the series with Sagittaria pygmaea, L. (setting [16]) it was 9.0. Besides, the “herbicidal effect rating, MOOVA” value in series [3] (setting [13]), in series [3] (setting [14]), in series [3] (setting [15]) and in series [3] (setting [16]) was 9.0 in each case. Moreover, the “herbicidal effect rating, ORYSAT (rice tolerance)” value in series [4] (0.0313 kg/ha) came out at 7.0; in series [4] (0.0625 kg/ha) it was 8.0; in series [4] (0.1250 kg/ha) it was 9.0; in series [4] (0.2500 kg/ha) it was 9.0.
On to `CCCCS(=O)(=O)NC(=O)COc1ccccc1-c1nsc2ccc(-n3c(=O)cc(C(F)(F)F)n(C)c3=O)cc12` [Example 574, Acetamide, N-(butylsulfonyl)-2-{o-{5-[3,6-dihydro-3-methyl-2,6-dioxo-4-(trifluoromethyl)-1(2H)-pyrimidinyl]-1,2-benzisothiazol-3-yl}-phenoxy}-], for which the “herbicidal effect rating, CYPIR” value in the series with Cyperus iria (setting [5]) is given as 2.0; in the series on Cyperus iria (setting [6]), 5.5; in the series with Cyperus iria (setting [7]) it was 6.0; in the series on Cyperus iria (setting [8]), 7.0. For the same compound, the “herbicidal effect rating, CYPSE” value is 0.0 in series [1] (setting [5]), 2.0 in series [1] (setting [6]), 4.5 in series [1] (setting [7]) and 6.5 in series [1] (setting [8]). In addition, the “herbicidal effect rating, ECHORC” value is 4.0 in series [2] (setting [5]), 6.5 in series [2] (setting [6]), 8.5 in series [2] (setting [7]) and 9.0 in series [2] (setting [8]). The “herbicidal effect rating, SAGPY” value is 0.0 in the series on Sagittaria pygmaea, L. (setting [5]); 1.0 in the series with Sagittaria pygmaea, L. (setting [6]); 2.0 in the series with Sagittaria pygmaea, L. (setting [7]); 6.0 in the series with Sagittaria pygmaea, L. (setting [8]). Besides, the “herbicidal effect rating, MOOVA” value in series [3] (setting [5]), in series [3] (setting [6]), in series [3] (setting [7]) and in series [3] (setting [8]) was 9.0 each time. Moreover, the “herbicidal effect rating ORYSAT” value in series [4] (Rate 0.0320 kg/ha) was 3.0; in series [4] (Rate 0.0620 kg/ha), 4.5; in series [4] (Rate 0.1250 kg/ha), 6.5; in series [4] (Rate 0.2500 kg/ha) it was 8.0.

Source of the values: patent publication EP0908457B1, “3-(1,2-benzisothiazol- and isoxazol-5-Y1)-2,4(1H,3H)-pyrimidinedione or thione and 3-(1,2-benzisothiazol- and isoxazol-5-y1)-4(3H)-pyrimidinone or thione herbicidal agents” (BASF AKTIENGESELLSCHAFT, priority 1997, dated 1999).
